According to patent publication US9463214B2, “Antibiotic peptide derived from helicobacter pylori ribosomal protein L1 and uses thereof” (INDUSTRY-ACADEMIC COOPERATION FOUNDATION, CHOSUN UNIVERSITY, priority 2013, dated 2016):
Several values for one entry are separate records, joined by “and”; a condition that tells them apart may be missing. Identical values can stand only once. Like-named read-outs stand apart in the source and are kept apart here. Ends that are not written are not given here.

Key:
E. coli CCARM 1238 = test: microbe, parasite or virus in culture; assay type: cell-based, Escherichia coli; conditions: E. coli CCARM 1238, antibiotic-resistant
Source text: (§1) To investigate the antibacterial activity of the HPA3P2 peptide prepared by the method of Example 1, the inventors first measured the minimal inhibitory concentration (MIC) that is the minimum concentration of the peptide for the strain to remain as not-decomposed.
(§2) Particularly, to measure the antibacterial activity, the standard strains were obtained. For example, Gram-negative bacteria such as E. coli (KCTC 1682) and Pseudomonas aeruginosa (KCTC 1637), and Gram-positive bacteria such as Staphylococcus aureus (KCTC […]) and Bacillus subtilis (KCTC 1918) were provided from Gene Bank, Korea Research Institute of Bioscience & Biotechnology. In addition, a variety of the antibiotic-resistant strains such as Staphylococcus aureus (CCARM 3090, 3018, 3114, 3126) and E. coli (CCARM 1229, 1238) were distributed from the culture collection at Ewha Womans University. And Pseudomonas aeruginosa (1034, 3904, 4007, 4891) were obtained from the otitis media patients at Chonnam National University Hospital. Each strain was cultured in LB medium (1% bacto-trypton, 0.5% bacto-yeast extract, 1% NaCl; Sigma, USA) until the strain grew to mid-log phase. The strain was diluted with 1% bacto-peptone medium (Difco, USA) at the density of 5×10^5 cells/100 μl, which was then inoculated in micro-titrate plate (Nunc, USA). The peptide synthesized in Example 1 and the peptides in Table 1 were added to the plate (1/2 dilution from 96 well), followed by culture at 37° C. for 6 hours. OD620 was measured by using micro-titrate plate reader (Merck Elisa reader, Germany) to determine the MIC value of each strain.

E-coli CCARM 1229 = test: microbe, parasite or virus in culture; assay type: cell-based, Escherichia coli; conditions: E-coli CCARM 1229, antibiotic-resistant
Source text: as §1, §2

S. aureus CCARM 3018 = test: microbe, parasite or virus in culture; assay type: cell-based, Staphylococcus aureus; conditions: S. aureus CCARM 3018, antibiotic-resistant
Source text: as §1, §2

S. aureus CCARM 3126 = test: microbe, parasite or virus in culture; assay type: cell-based, Staphylococcus aureus; conditions: S. aureus CCARM 3126, antibiotic-resistant
Source text: as §1, §2

S. aureus CCARM 3090 = test: microbe, parasite or virus in culture; assay type: cell-based, Staphylococcus aureus; conditions: S. aureus CCARM 3090, antibiotic-resistant
Source text: as §1, §2

S. aureus CCARM 3114 = test: microbe, parasite or virus in culture; assay type: cell-based, Staphylococcus aureus; conditions: S. aureus CCARM 3114, antibiotic-resistant
Source text: as §1, §2

P. aeruginosa 3904 = test: microbe, parasite or virus in culture; assay type: cell-based, Pseudomonas aeruginosa; conditions: P. aeruginosa 3904, antibiotic-resistant, from otitis media patients
Source text: as §1, §2

P. aeruginosa 4891 = test: microbe, parasite or virus in culture; assay type: cell-based, Pseudomonas aeruginosa; conditions: P. aeruginosa 4891, antibiotic-resistant, from otitis media patients
Source text: as §1, §2

P. aeruginosa 4007 = test: microbe, parasite or virus in culture; assay type: cell-based, Pseudomonas aeruginosa; conditions: P. aeruginosa 4007, antibiotic-resistant, from otitis media patients
Source text: as §1, §2

P. aeruginosa 1034 = test: microbe, parasite or virus in culture; assay type: cell-based, Pseudomonas aeruginosa; conditions: P. aeruginosa 1034, antibiotic-resistant, from otitis media patients
Source text: as §1, §2

[1] = system: Staphylococcus aureus (KCTC 1637); assay type: cell-based; conditions: 37° C., 6 hours, OD620
Source text: as §1, §2

[2] = system: Pseudomonas aeruginosa (KCTC 1637); assay type: cell-based; conditions: 37° C., 6 hours, OD620
Source text: as §1, §2

[3] = system: Bacillus subtilis (KCTC 1918); assay type: cell-based; conditions: 37° C., 6 hours, OD620
Source text: as §1, §2

E. coli (KCTC 1682) = assay type: cell-based; conditions: Escherichia coli KCTC 1682; 37° C., 6 hours, OD620
Source text: as §1, §2

[4] = Cytotoxicity in normal cell line (MTT); assay type: cell-based, human; conditions: human, HaCaT cells (human keratinocyte cell line), read-out: EC50 (50% cytotoxicity inhibition concentration)
Method: (§3) To investigate whether or not the peptides prepared in Example 1 had cytotoxicity in normal cell line, the inventors investigated cytotoxicity in the human keratinocyte HaCaT cell line (Dr. N E. Fusenig, Heidelberg, Germany).
(§4) Particularly, human keratinocyte HaCaT cells were cultured in DMEM (Dulbecco's Modified Eagle's Medium) supplemented with 10% FBS (Fetal Bovine Serum), which were then distributed in a 96-well plate at the density of 2×10^4 cells/well, followed by further culture for 24 hours. The peptides prepared in Example 1 were treated at different concentrations, followed by reaction in a 5% CO2 incubator for 24 hours. Upon completion of the culture, 20 μl of phosphate buffered saline (PBS) wherein MTT (Thiazolyl Blue Tetrazolium Bromide) was dissolved at the concentration of 5 mg/ml was added to each well, followed by culture for 4 hours. The supernatant was discarded. Then, the generated MTT crystal was dissolved in 200 μl of DMSO. OD560 was measured.

[5] = system: human keratinocyte HaCaT cell line; test: Cytotoxicity in normal cell line (MTT); assay type: cell-based; conditions: HaCaT cells, 24 hours
Method: as §3, §4

human erythrocytes = test: Hemolytic activity; assay type: cell-based; conditions: for HC10 / HC50: human erythrocytes 8% in PBS, 37° C., 1 hour; for HC10: first value of HC10/HC50 cell; for HC50: second value of HC10/HC50 cell; for hemolytic activity: human erythrocytes, up to 800 μM peptide
Method: To investigate whether or not the peptide HPA3P2 that has the folding structure as prepared in Example 1 had cytotoxicity, the hemolytic activity of the peptide having the folding structure was measured.
Particularly, human erythrocytes were diluted in PBS (pH 7.0) at the concentration of 8%, to which the peptides represented by SEQ. ID. […] Then, centrifugation was performed at 1,000 g. Hemoglobin included in the supernatant was measured by measuring OD414. To compare and measure the level of cell destruction, 1% triton X-100 (Sigma, USA) was added to the human erythrocytes, and then OD of the supernatant was measured. The cell destruction capacity of the said 1% triton X-100 was considered as 100%, based on which the erythrocyte destruction capacity of each peptide including the peptide of the invention and the peptides listed in Table 1 was calculated by the below mathematical formula 1. % hemolysis=(ODA−ODB/ODC−ODB)×100 [Mathematical Formula 1] In the above mathematical formula 1, ODA is the OD of the peptide solution measured at 414 nm, and ODB is the OD of PBS measured at 414 nm, and ODC is the OD of 1% triton X-100 measured at 414 nm.

E. coli cells = test: SYTOX-Green fluorescence intensity in E. coli; assay type: cell-based; conditions: E. coli 2×10^7 cells/ml, 1 μM SYTOX-Green, over time and peptide concentration
Method: The SYTOX-Green fluorescence and luminous intensity of the peptide prepared in Example 1 were measured over the time.
Particularly, E. coli cells were cultured in LB medium at 37° C. The cells were diluted in 10 mM sodium phosphate buffer at the density of 2×10^7 cells/ml. 1 μM of SYTOX-Green was treated to the cells, followed by reaction in a dark incubator for 15˜20 minutes. The comparative peptides (HPA3P(A) and Buporin-2(C)), and the experimental peptide HPA3P2(B) were treated at the minimum inhibition concentration. The increasing fluorescence intensity emitted from SYTOX-Green was measured (excitation wavelength: 484 nm, emission wavelength: 520 nm).

Row | Compound | MIC Sa [1] | MIC Pa [2] | MIC Bs [3] | MIC Ec (E. coli (KCTC 1682)) | MIC (E. coli CCARM 1238) | MIC (E-coli CCARM 1229) | MIC (P. aeruginosa 3904) | MIC (P. aeruginosa 4891) | MIC (P. aeruginosa 4007) | MIC (P. aeruginosa 1034) | EC10 (10% cytotoxicity inhibition concentration) [5] | HC10 (human erythrocytes) | HC50 (human erythrocytes) | hemolytic activity (human erythrocytes) | MIC (S. aureus CCARM 3018) | MIC (S. aureus CCARM 3126) | MIC (S. aureus CCARM 3090) | MIC (S. aureus CCARM 3114) | other results
1 | CC1(C)S[C@@H]2[C@H](NC(=O)[C@H](N)c3ccccc3)C(=O)N2[C@H]1C(=O)O [Ampicillin] | – | – | – | – | – | – | – | – | – | – | – | – | – | – | – | – | – | – | MIC (E. coli CCARM 1238; Escherichia coli, CCARM1238, read-out: MIC): > 800 µM; MIC (E-coli CCARM 1229; Escherichia coli, CCARM1229, read-out: MIC): > 800 µM
2 | CC[C@H]1OC(=O)[C@H](C)[C@@H](O[C@H]2C[C@@](C)(OC)[C@@H](O)[C@H](C)O2)[C@H](C)[C@@H](O[C@@H]2O[C@H](C)C[C@H](N(C)C)[C@H]2O)[C@](C)(O)C[C@@H](C)C(=O)[C@H](C)[C@@H](O)[C@]1(C)O [Erythromycin] | – | – | – | – | – | – | – | – | – | – | – | – | – | – | – | – | – | – | MIC (S. aureus CCARM 3018; Staphylococcus aureus, CCARM3018): > 800 µM; MIC (S. aureus CCARM 3126; Staphylococcus aureus, CCARM3126): > 800 µM; MIC (S. aureus CCARM 3090; Staphylococcus aureus, CCARM3090): > 800 µM; MIC (S. aureus CCARM 3114; Staphylococcus aureus, CCARM3114): > 800 µM
3 | CCN1CCN(C(=O)N[C@@H](C(=O)N[C@@H]2C(=O)N3[C@@H]2SC(C)(C)[C@@H]3C(=O)O)c2ccccc2)C(=O)C1=O [Piperacillin] | – | – | – | – | – | – | – | – | – | – | – | – | – | – | – | – | – | – | MIC (P. aeruginosa 3904; Pseudomonas aeruginosa): > 400 µM; MIC (P. aeruginosa 4891; Pseudomonas aeruginosa): > 400 µM; MIC (P. aeruginosa 4007; Pseudomonas aeruginosa): > 400 µM; MIC (P. aeruginosa 1034; Pseudomonas aeruginosa): > 400 µM
4 | AKKVFKRLPKLFSKIWNWK-NH2 [HPA3P, AKKVFKRLPKLFSKIWNWK-NH2] | 16 µM | 8 µM | 2 µM | 1 µM | 0.5 to 1 µM | 0.5 to 1 µM | 1 µM | 1 µM | 1 µM | 1 µM | 151.1 µM and 151.5 µM | >800/>800 μM | >800/>800 μM | not observed | 1 µM | 1 µM | 1 µM | 1 µM | EC50 at 24 h [4]: 381 µM
5 | AKKVFKRLPKLPSKIWNWK-NH2 [HPA3P2, AKKVFKRLPKLPSKIWNWK-NH2] | >64 µM | 16 µM | >64 µM | 16 µM | 0.5 to 1 µM | 0.5 to 1 µM | 1 µM | 1 µM | 1 µM | 1 µM | 180.5 µM | >800/>800 μM | >800/>800 μM | not observed | 1 µM | 1 µM | 1 µM | 1 µM | –
6 | buforin-2 | – | – | – | – | – | – | – | – | – | – | – | – | – | – | – | – | – | – | change of SYTOX-Green fluorescence intensity (E. coli cells): the fluorescence intensity is changed
